The values that follow come from patent publication US6852734B2, “Indole derivatives exhibiting chymase-inhibitory activities and process for preparation thereof” (Meiji Seika Kaisha, Ltd., priority 2000, dated 2005).

Structures are written as SMILES.

The first assay has as its target T1, chymase (Homo sapiens, UniProt P23946).
T1 sequence (P23946 22-247): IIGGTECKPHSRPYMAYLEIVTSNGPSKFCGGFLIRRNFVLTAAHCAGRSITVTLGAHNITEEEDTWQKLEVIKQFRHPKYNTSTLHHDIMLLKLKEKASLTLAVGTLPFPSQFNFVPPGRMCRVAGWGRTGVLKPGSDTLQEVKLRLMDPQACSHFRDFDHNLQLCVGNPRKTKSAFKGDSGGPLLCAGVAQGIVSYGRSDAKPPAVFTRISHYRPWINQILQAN
Assay: not given
To be noted: confirmed in PCT/JP99/06738 (WO 00/32587); cited from earlier work.
`Cn1c(=O)c(Cc2[nH]c3ccccc3c2CCO)c(O)c2ccccc21` [SF2809-III]: the “chymase inhibitory activity (in words)” value is listed as “has a chymase inhibitory activity”.
In the case of `Cn1c(=O)c(C(c2ccc(O)cc2)c2[nH]c3ccccc3c2CCO)c(O)c2ccccc21` (stereo not shown) [SF2809-IV], the “chymase inhibitory activity (in words)” value was “has a chymase inhibitory activity”.
For `CC(=O)NCCc1c(Cc2c(O)c3ccccc3n(C)c2=O)[nH]c2ccccc12` [SF2809-I], the “chymase inhibitory activity (in words)” value is given as “has a chymase inhibitory activity”.
Take `Cn1c(=O)c(C(c2ccccc2)c2[nH]c3ccccc3c2CCO)c(O)c2ccccc21` (stereo not shown) [SF2809-VI]: the “chymase inhibitory activity (in words)” value was “has a chymase inhibitory activity”.
Turning to `CC(=O)NCCc1c(C(c2ccccc2)c2c(O)c3ccccc3n(C)c2=O)[nH]c2ccccc12` (stereo not shown) [SF2809-V], the “chymase inhibitory activity (in words)” value was “has a chymase inhibitory activity”.
Turning to `CC(=O)NCCc1c(C(c2ccc(O)cc2)c2c(O)c3ccccc3n(C)c2=O)[nH]c2ccccc12` (stereo not shown) [SF2809-II], the “chymase inhibitory activity (in words)” value is “has a chymase inhibitory activity”.

The target of the next assay is T2, active-type human chymase (Homo sapiens, UniProt P23946).
T2 construct: made in house
T2 sequence (P23946 22-247): T1 sequence (P23946 22-247)
Briefly: Chymase inhibitory activity (Test Example 1; hydrolysis of succinyl-alanyl-histidyl-prolyl-phenylalanyl-p-nitroanilide, absorbance at 405 nm). In kind it is biochemical. To be noted: recombinant active-type human chymase, 0.5 mM p-nitroanilide substrate, Buffer A pH 8.0, room temperature, 5 minutes; read-out: Chymase inhibitory activity IC50 (molar concentration). The method, then: • (a) The preparation of the enzyme chymase was carried out as follows. That is, a recombinant pro-type human chymase to be used had been prepared in accordance with the method of Urata et al's report [“J. Biol. Chem.”, Vol.266, p.17173 (1991)]. Further, the chymase product as preliminarily purified was activated in accordance with the method of Murakami et al's report [“J. Biol. Chem.”, Vol.270, p.2218 (1991)]. The resulting activated chymase product was purified with heparin Sepharose to afford an active-type human chymase. • (b) To 50 μl of Buffer A (comprising 0.5-3.0M NaCl and 50 mM tris-HCl, pH 8.0) containing 1-5 ng of the active-type human chymase as obtained by the above-mentioned methods, was added 2 μl of a solution in […] which contained an indole derivative of this invention as the substance to be tested. Then, to the resultant mixture, there was added 50 μl of Buffer A containing 0.5 mM of succinyl-alanyl-histidyl-prolyl-phenylalanyl-p-nitroanilide (a product of Backem Co.) as the substrate. The resulting reaction mixture was incubated at room temperature for 5 minutes. The chymase inhibitory activity was assessed by measuring the changes in the absorbance of a light at 405 nm of the resulting reaction solution with the passage of time. The chymase inhibitory activity of the indole derivatives tested of this invention was evaluated in term of IC50 values (in molar concentration, M).
The indole derivatives of this invention as tested in this Example are the compounds of Compound No. 003, 021, 026, 027, 030, 076 and 078 shown in Table 1 above.
With `Cn1c(=O)c(C(c2ccc(OC(F)(F)F)cc2)c2[nH]c3ccccc3c2CCNS(=O)(=O)c2ccc3ccccc3c2)c(O)c2ccccc21` (stereo not shown) [Compound No. 027], the IC50 turned out to be 5.11 nM.
The same measure, in the same setting: as for `CC(=O)NCCc1c(C(c2ccccc2OC(C)=O)c2c(O)c3ccccc3n(C)c2=O)[nH]c2ccccc12` (stereo not shown) [Compound No. 078], the figure is 1.86 nM; as for `Cn1c(=O)c(C(c2cccc(F)c2)c2[nH]c3ccccc3c2CCNC(=O)c2cc(C(F)(F)F)cc(C(F)(F)F)c2)c(O)c2ccccc21` (stereo not shown) [compound 003], 2.64 nM.
`Cn1c(=O)c(C(c2ccc(OC(F)(F)F)cc2)c2[nH]c3ccccc3c2CCOC(=O)c2ccccc2)c(O)c2ccccc21` (stereo not shown) [Compound No. 030]: the IC50 stood at 0.587 nM.
Same read-out and setting: in the case of `Cn1c(=O)c(C(c2cccc(Br)c2)c2[nH]c3ccccc3c2CCNS(=O)(=O)c2ccc3ccccc3c2)c(O)c2ccccc21` (stereo not shown) [Compound No. 026] it was 0.439 nM; in that of `COc1ccc(C(=O)OCCc2c(C(c3ccc(C(F)(F)F)cc3)c3c(O)c4ccccc4n(C)c3=O)[nH]c3ccccc23)cc1OC` (stereo not shown) [Compound No. 021], 1.4 nM.
Same read-out and setting: as for `CC(=O)OCCc1c(C(c2cccc(Br)c2)c2c(O)c3ncsc3n(C)c2=O)[nH]c2ccccc12` (stereo not shown) [Compound No. 076], the figure is 0.893 nM.
